Tests used:
ITK = target: T1, ITK (Homo sapiens, UniProt Q08881); assay: Inhibitory activity against ITK, ADP-Glo Kinase system (Promega); type: biochemical; details: 1mM ATP; read-out: ITK IC50(nM) 1mM ATP
T1 construct: purchased Signalchem I13-11G-10
T1 sequence (Q08881 1-620): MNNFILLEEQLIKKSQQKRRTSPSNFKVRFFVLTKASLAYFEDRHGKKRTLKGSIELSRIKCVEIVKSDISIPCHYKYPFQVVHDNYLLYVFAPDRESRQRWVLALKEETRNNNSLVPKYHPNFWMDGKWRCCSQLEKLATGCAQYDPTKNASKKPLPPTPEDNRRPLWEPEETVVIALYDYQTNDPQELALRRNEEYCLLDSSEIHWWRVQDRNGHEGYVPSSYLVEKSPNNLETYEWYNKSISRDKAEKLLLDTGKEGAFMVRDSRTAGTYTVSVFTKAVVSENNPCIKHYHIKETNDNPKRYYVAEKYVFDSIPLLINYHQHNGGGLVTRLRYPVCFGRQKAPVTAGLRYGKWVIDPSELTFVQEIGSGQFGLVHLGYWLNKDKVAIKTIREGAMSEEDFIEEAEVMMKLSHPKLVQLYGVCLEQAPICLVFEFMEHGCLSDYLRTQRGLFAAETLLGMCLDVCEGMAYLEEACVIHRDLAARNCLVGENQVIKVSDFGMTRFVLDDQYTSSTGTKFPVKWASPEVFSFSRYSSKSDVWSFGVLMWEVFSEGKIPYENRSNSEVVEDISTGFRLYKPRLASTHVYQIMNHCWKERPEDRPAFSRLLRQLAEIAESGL
Summary of the method: (§1)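 IC50 values were fitted from kinase reactions run for 1 h at 30°C with either 1 mM ATP or ATP at Km (10 µM for BTK, 25 µM for ITK). Reactions used 0.2 µg/µl poly(Glu4,Tyr1), recombinant human enzyme (BTK 10 ng, ITK 4 ng per reaction) in Tris pH 7.5 Mn/Mg buffer with 1% DMSO. ADP formed was read by ADP-Glo luminescence.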

BTK = target: T2, BTK (Homo sapiens, UniProt Q06187); assay: Inhibitory activity against BTK, ADP-Glo Kinase system (Promega); type: biochemical; details: 1mM ATP; read-out: BTK IC50(nM) 1mM ATP
T2 construct: purchased Signalchem B10-10H
T2 sequence (Q06187 whole entry): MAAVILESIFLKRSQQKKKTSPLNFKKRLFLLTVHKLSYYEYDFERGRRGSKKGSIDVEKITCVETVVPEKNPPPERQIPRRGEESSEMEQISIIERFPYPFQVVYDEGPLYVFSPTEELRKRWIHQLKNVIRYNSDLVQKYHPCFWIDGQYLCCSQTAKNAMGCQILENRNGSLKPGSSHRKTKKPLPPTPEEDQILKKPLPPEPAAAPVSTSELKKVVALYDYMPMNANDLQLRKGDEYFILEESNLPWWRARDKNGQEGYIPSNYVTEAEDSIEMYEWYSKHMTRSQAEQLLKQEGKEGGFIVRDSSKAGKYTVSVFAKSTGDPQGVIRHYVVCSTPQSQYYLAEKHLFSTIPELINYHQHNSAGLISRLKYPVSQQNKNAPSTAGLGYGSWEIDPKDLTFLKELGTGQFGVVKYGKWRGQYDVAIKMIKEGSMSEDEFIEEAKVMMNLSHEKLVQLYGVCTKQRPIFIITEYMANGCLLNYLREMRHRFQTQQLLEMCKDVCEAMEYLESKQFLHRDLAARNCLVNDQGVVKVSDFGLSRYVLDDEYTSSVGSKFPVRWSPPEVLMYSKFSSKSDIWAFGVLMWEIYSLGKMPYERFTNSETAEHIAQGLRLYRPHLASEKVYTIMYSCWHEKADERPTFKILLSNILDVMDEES
Summary of the method: as §1

| SMILES | IC50 (ITK) [nM] | IC50 (BTK) [nM] |
| --- | --- | --- |
| C=CC(=O)N1C[C@H](F)[C@H](Oc2nc(Nc3cc(C)[nH]n3)cc3c2ccn3CC(C)C)C1 [Example 196, 1-((3S,4R)-3-fluoro-4-((1-isobutyl-6-((5-methyl-1H-pyrazol-3-yl)amino)-1H-pyrrolo[3,2-c]pyridin-4-yl)oxy)pyrrolidin-1-yl)prop-2-en-1-one] | 20 to 100 | 20 to 100 |
| C=CC(=O)N1C[C@H](F)[C@H](Oc2nc(Nc3ccn(C)n3)cc3c2ccn3CC(C)C)C1 [Example 197, 1-((3S,4R)-3-fluoro-4-((1-isobutyl-6-((1-methyl-1H-pyrazol-3-yl)amino)-1H-pyrrolo[3,2-c]pyridin-4-yl)oxy)pyrrolidin-1-yl)prop-2-en-1-one] | > 500 | > 500 |
| C=CC(=O)N1CC[C@H](Oc2nc(Nc3cccn(C)c3=O)cc3c2ccn3C(C)C)C1 [Example 198, (S)-3-((4-((1-acryloylpyrrolidin-3-yl)oxy)-1-isopropyl-1H-pyrrolo[3,2-c]pyridin-6-yl)amino)-1-methylpyridin-2(1H)-one] | > 500 | > 500 |
| C=CC(=O)N1C[C@H](F)[C@H](Oc2nc(Nc3cccn(C)c3=O)cc3c2ccn3CC(C)C)C1 [Example 199, 3-((4-(((3R,4S)-1-acryloyl-4-fluoropyrrolidin-3-yl)oxy)-1-isobutyl-1H-pyrrolo[3,2-c]pyridin-6-yl)amino)-1-methylpyridin-2(1H)-one] | > 500 | > 500 |
| C=CC(=O)N1CCCC12CC(Oc1nc(Nc3ncc(C)s3)cc3c1ccn3CC(C)C)C2 (stereo not drawn) [Example 200, 1-(2-((1-isobutyl-6-((5-methylthiazol-2-yl)amino)-1H-pyrrolo[3,2-c]pyridin-4-yl)oxy)-5-azaspiro[3.4]octan-5-yl)prop-2-en-1-one] | 100 to 500 | 20 to 100 |
| C=CC(=O)N1CCCC12CCC(Oc1nc(Nc3ncc(C)s3)cc3c1ccn3CC(C)C)C2 (stereo not drawn) [Example 201, 1-(7-((1-isobutyl-6-((5-methylthiazol-2-yl)amino)-1H-pyrrolo[3,2-c]pyridin-4-yl)oxy)-1-azaspiro[4.4]nonan-1-yl)prop-2-en-1-one] | > 500 | 100 to 500 |
| C=CC(=O)N1CCC2(CC(Oc3nc(Nc4ncc(C)s4)cc4c3ccn4CC(C)C)C2)C1 (stereo not drawn) [Example 202, 1-(2-((1-isobutyl-6-((5-methylthiazol-2-yl)amino)-1H-pyrrolo[3,2-c]pyridin-4-yl)oxy)-6-azaspiro[3.4]octan-6-yl)prop-2-en-1-one] | 100 to 500 | 100 to 500 |
| C=CC(=O)N1CCCCC12CC(Oc1nc(Nc3ncc(C)s3)cc3c1ccn3CC(C)C)C2 (stereo not drawn) [Example 203, 1-(2-((1-isobutyl-6-((5-methylthiazol-2-yl)amino)-1H-pyrrolo[3,2-c]pyridin-4-yl)oxy)-5-azaspiro[3.5]nonan-5-yl)prop-2-en-1-one] | > 500 | > 500 |
| C=CC(=O)N1CCC2(CCC(Oc3nc(Nc4ncc(C)s4)cc4c3ccn4CC(C)C)C2)C1 (stereo not drawn) [Example 204, 1-(7-((1-isobutyl-6-((5-methylthiazol-2-yl)amino)-1H-pyrrolo[3,2-c]pyridin-4-yl)oxy)-2-azaspiro[4.4]nonan-2-yl)prop-2-en-1-one] | > 500 | > 500 |
| C=CC(=O)N1CC[C@H](Oc2nc(Nc3ncc(C)s3)cc3c2ccn3CC(F)(F)F)C1 [Example 205, (S)-1-(3-((6-((5-methylthiazol-2-yl)amino)-1-(2,2,2-trifluoroethyl)-1H-pyrrolo[3,2-c]pyridin-4-yl)oxy)pyrrolidin-1-yl)prop-2-en-1-one] | ≤ 20 | ≤ 20 |
| C=CC(=O)N1CC[C@H](Oc2nc(Nc3ncc(C)s3)cc3c2ccn3CC(F)F)C1 [Example 206, (S)-1-(3-((1-(2,2-difluoroethyl)-6-((5-methylthiazol-2-yl)amino)-1H-pyrrolo[3,2-c]pyridin-4-yl)oxy)pyrrolidin-1-yl)prop-2-en-1-one] | ≤ 20 | ≤ 20 |
| C=CC(=O)N1CCC[C@@H]1COc1nc(Nc2ncc(C)s2)cc2c1ccn2CC(F)(F)F [Example 207, (R)-1-(2-(((6-((5-methylthiazol-2-yl)amino)-1-(2,2,2-trifluoroethyl)-1H-pyrrolo[3,2-c]pyridin-4-yl)oxy)methyl)pyrrolidin-1-yl)prop-2-en-1-one] | ≤ 20 | ≤ 20 |
| C=CC(=O)N1CC[C@@H]1COc1nc(Nc2ncc(C)s2)cc2c1ccn2CC(F)(F)F [Example 208, (R)-1-(2-(((6-((5-methylthiazol-2-yl)amino)-1-(2,2,2-trifluoroethyl)-1H-pyrrolo[3,2-c]pyridin-4-yl)oxy)methyl)azetidin-1-yl)prop-2-en-1-one] | ≤ 20 | ≤ 20 |
| C=CC(=O)N1CC[C@@H]1COc1nc(Nc2ncc(C)s2)cc2c1ccn2CC(F)F [Example 209, (R)-1-(2-(((1-(2,2-difluoroethyl)-6-((5-methylthiazol-2-yl)amino)-1H-pyrrolo[3,2-c]pyridin-4-yl)oxy)methyl)azetidin-1-yl)prop-2-en-1-one] | ≤ 20 | ≤ 20 |
| C=CC(=O)N1CCC[C@@H]1COc1nc(Nc2ncc(C)s2)cc2c1ccn2CC(F)F [Example 210, (R)-1-(2-(((1-(2,2-difluoroethyl)-6-((5-methylthiazol-2-yl)amino)-1H-pyrrolo[3,2-c]pyridin-4-yl)oxy)methyl)pyrrolidin-1-yl)prop-2-en-1-one] | ≤ 20 | ≤ 20 |
| C=CC(=O)N1C[C@H](F)[C@H](Oc2nc(Nc3ncc(C)s3)cc3c2ccn3CC(F)(F)F)C1 [Example 211, 1-((3S,4R)-3-fluoro-4-((6-((5-methylthiazol-2-yl)amino)-1-(2,2,2-trifluoroethyl)-1H-pyrrolo[3,2-c]pyridin-4-yl)oxy)pyrrolidin-1-yl)prop-2-en-1-one] | ≤ 20 | ≤ 20 |
| C=CC(=O)N1C[C@@H](Oc2nc(Nc3ncc(C)s3)cc3c2ccn3CC(F)(F)F)C[C@H]1C [Example 212, 1-((2R,4S)-2-methyl-4-((6-((5-methylthiazol-2-yl)amino)-1-(2,2,2-trifluoroethyl)-1H-pyrrolo[3,2-c]pyridin-4-yl)oxy)pyrrolidin-1-yl)prop-2-en-1-one] | ≤ 20 | ≤ 20 |
| C=CC(=O)N1CC[C@H](Oc2nc(Nc3ncc(C)s3)cc3c2ccn3[C@H](C)C(F)(F)F)C1 [Example 213, 1-((S)-3-((6-((5-methylthiazol-2-yl)amino)-1-((R)-1,1,1-trifluoropropan-2-yl)-1H-pyrrolo[3,2-c]pyridin-4-yl)oxy)pyrrolidin-1-yl)prop-2-en-1-one] | ≤ 20 | ≤ 20 |
| C=CC(=O)N1CCC[C@@H](COc2nc(Nc3ncc(C)s3)cc3c2ccn3CC(C)C)C1 [Example 214, (R)-1-(3-(((1-isobutyl-6-((5-methylthiazol-2-yl)amino)-1H-pyrrolo[3,2-c]pyridin-4-yl)oxy)methyl)piperidin-1-yl)prop-2-en-1-one] | > 500 | 20 to 100 |
| C=CC(=O)N1CCC[C@H](COc2nc(Nc3ncc(C)s3)cc3c2ccn3CC(C)C)C1 [Example 215, (S)-1-(3-(((1-isobutyl-6-((5-methylthiazol-2-yl)amino)-1H-pyrrolo[3,2-c]pyridin-4-yl)oxy)methyl)piperidin-1-yl)prop-2-en-1-one] | 100 to 500 | ≤ 20 |
| C=CC(=O)N1CC[C@H](COc2nc(Nc3ncc(C)s3)cc3c2ccn3CC(C)C)C1 [Example 216, (S)-1-(3-(((1-isobutyl-6-((5-methylthiazol-2-yl)amino)-1H-pyrrolo[3,2-c]pyridin-4-yl)oxy)methyl)pyrrolidin-1-yl)prop-2-en-1-one] | 100 to 500 | 20 to 100 |
| C=CC(=O)N1CCCC1COc1nc(Nc2ncc(C)s2)cc2c1ccn2C1CCCC1 (stereo not drawn) [Example 217, 1-(2-(((1-cyclopentyl-6-((5-methylthiazol-2-yl)amino)-1H-pyrrolo[3,2-c]pyridin-4-yl)oxy)methyl)pyrrolidin-1-yl)prop-2-en-1-one] | 20 to 100 | ≤ 20 |
| C=CC(=O)N1CCC1COc1nc(Nc2ncc(C)s2)cc2c1ccn2C1CCCC1 (stereo not drawn) [Example 218, 1-(2-(((1-cyclopentyl-6-((5-methylthiazol-2-yl)amino)-1H-pyrrolo[3,2-c]pyridin-4-yl)oxy)methyl)azetidin-1-yl)prop-2-en-1-one] | ≤ 20 | ≤ 20 |
| C=CC(=O)N1CCC[C@H]1COc1nc(Nc2ncc(C)s2)cc2c1ccn2C(C)C [Example 219, (S)-1-(2-(((1-isopropyl-6-((5-methylthiazol-2-yl)amino)-1H-pyrrolo[3,2-c]pyridin-4-yl)oxy)methyl)pyrrolidin-1-yl)prop-2-en-1-one] | > 500 | 20 to 100 |

Source: EP4707277A1, “NOVEL HETEROCYCLIC AMINE DERIVATIVES AND PHARMACEUTICAL COMPOSITION COMPRISING SAME” (Daewoong Pharmaceutical Co., Ltd., priority 2023, dated 2024)
